# Key:
# Format in all cases: functional
# Gallus gallus [1] = species: Gallus gallus; test: Increase in weight of Eimeria tenella infected Chick at 2 ug/ml relative to control
# Eimeria tenella [2] = test: Anticococcidal activity against Eimeria tenella in Chick assessed as reduction in lesion at 8 ug/ml relative to control; design: scale not given: the % may be the effect or the level left
# Gallus gallus [3] = species: Gallus gallus; test: Increase in weight of Eimeria tenella infected Chick at 4 ug/ml relative to control
# Eimeria tenella [4] = test: Anticococcidal activity against Eimeria tenella in Chick assessed as reduction in lesion at 2 ug/ml relative to control; design: scale not given: the % may be the effect or the level left
# Eimeria tenella [5] = test: Anticococcidal activity against Eimeria tenella in Chick assessed as reduction in lesion at 4 ug/ml relative to control; design: scale not given: the % may be the effect or the level left
# Gallus gallus [6] = species: Gallus gallus; test: Increase in weight of Eimeria tenella infected Chick at 8 ug/ml relative to control
# Gallus gallus [7] = species: Gallus gallus; test: Increase in weight of Eimeria tenella infected Chick at 125 ug/ml relative to control
# Eimeria tenella [8] = test: Anticococcidal activity against Eimeria tenella in Chick assessed as reduction in lesion at 125 ug/ml relative to control; design: scale not given: the % may be the effect or the level left
Structure (SMILES),Activity (Gallus gallus [1]) [%],Activity (Eimeria tenella [2]) [%],Activity (Gallus gallus [3]) [%],Activity (Eimeria tenella [4]) [%],Activity (Eimeria tenella [5]) [%],Activity (Gallus gallus [6]) [%],Activity (Gallus gallus [7]) [%],Activity (Eimeria tenella [8]) [%]
O=[N+]([O-])/C=C/c1ccco1,80.08,72.86,86.78,58.57,67.14,83.86,–,–
CCCc1ncc(C[n+]2ccccc2C)c(N)n1.Cl.[Cl-] [AMPROLIUM],–,–,–,–,–,–,75.19,60
